Test [1] has as its system human aortic endothelial cell (HAEC). The test can be described thus: Boyden chamber migration of HAEC towards cultured tumor cell supernatants. It is filed as cell-based. The conditions noted are these: added at 10μg/ml to the cultured tumor cell supernatant. The procedure: FIG. 4 depicts that EMP2 regulates VEGF expression. (A) A Boyden chamber assay was used to determine human aortic endothelial cell (HAEC) response to cultured tumor cell supernatants. In some experiments, the antiVEGF antibody Avastin® which binds soluble VEGF was added at 10μg/ml to the cultured supernatant. (B) The expression of total VEGF was measured using Western blot analysis. EMP2 expression was visualized to verify modulation of EMP2 in the cell lines; β-Actin was used as the loading control. (C) Secreted VEGF was measured using an ELISA. (D) Semi-quantitative expression of VEGF mRNA was determined using RTPCR. The experiment was repeated three times with similar results, and a representative blot is shown. GAPDH expression serves as a loading control. (E) Left, To determine the mechanism for VEGF regulation, HIF-1 a and PP ARy expression was determined using Western blot analysis. β-Actin expression serves as the loading control. Right, Quantization of HIF-1a expression relative to β-Actin for three independent experiments. The data represents the mean±SEM. […] Appropriate vehicle control cells are included. Western blot analysis was used to show the expression of EMP2, HIF-1a, and β-Actin in these cells.
Human umbilical vein endothelial cells (HUVEC) from passage 2 were purchased from BD Biosciences (San Diego, Calif.) and used between passages 3 and 7 for all experiments. […]

In a further test the test system is HIF-1a. The test can be described thus: HIF-1a expression by Western blot in HEC1a/EMP2 cells treated with kinase inhibitors in a hypoxic chamber. It is filed as cell-based, human. The conditions noted are these: 24 hrs, 1.0% hypoxic chamber. The protocol: To determine if EMP2 expression altered VEGF expression and secretion, cells were placed in a hypoxic chamber for 24 hours. EMP2 expression directly correlated with VEGF protein levels (FIG. 4B) as well as with secreted protein (FIG. 4C). […] Western blot analysis was carried out by Cells were lysed in Laemmli buffer. Proteins were separated by SDS-PAGE, transferred to a nitrocellulose membrane (Amersham Biosciences), and stained with Ponceau S (Sigma-Aldrich, St. Louis, Mo.) to determine transfer efficiency. Membranes were blocked with 10% low fat milk in PBS containing 0.1% Tween 20 and probed with EMP2 antisera (1:1000), anti-VEGF (Santa Cruz Biotech), antiHIF-1a (1:800; BD Biosciences), anti-PPAR-y (Santa Cruz Biotech), anti-p-Src (Cell Signaling, Danvers). Protein bands were visualized using a horseradish peroxidase (HRP)-labeled secondary antibody (BD Biosciences) followed by chemiluminescence (ECL; Amersham Biosciences). Band intensities were quantified using the NIH program Image J as above. To account for loading variability β-actin was used to normalize each sample. At least three independent experiments were performed and, where indicated, the results were evaluated for statistical significance using a Student's t-test (unpaired, one-tail). A level of P<0.05 was considered to be statistically significant.
In some experiments, inhibitors were added to determine the contribution of specific pathways to HIF-1a expression. HEC1a/EMP2 cells were treated with 10 μM of the kinase inhibitor Ly294002 (Cell Signaling), the EGFR inhibitor Erlotinib e; 10 μM, Genentech), or the Src family tyrosine kinase inhibitor Dasatinib e; 10 μM, Bristol-Myers Squibb). Efficacy of the inhibitors was tested at the manufacturer's recommended dosage, and potential toxicity was measured using trypan-blue exclusion. Samples were harvested and probed by SDS-PAGE/Western blot analysis as above […]
Using common inhibitors of AKT, PI3-kinase, EGFR, and Src tyrosine kinases, HEC1a/EMP2 cells were treated with these agents while in a hypoxic chamber.

The subject of a further test is HUVEC. The conditions noted are these: supernatants of HEC1a/RIBO or HEC1a/shRNA 911; 20 or 50 µg/ml. From the text:
Migration assays. […] The experiment was repeated three times.

“Also recorded” adds a separate entry of the source.

As for Bevacizumab, the HAEC migration entry in test [1] was “reduced HAEC migration to control levels”.

Turning to `O=c1[nH]c2ccccc2n1C1CCN(Cc2ccc(-c3nc4cc5[nH]cnc5cc4nc3-c3ccccc3)cc2)CC1` [AKTi, Akt inhibitor VIII], the figures for the “EMP2-induced HIF-1a expression” value in the test on HIF-1a and with HIF-1a (listed as AKT inhibitors) were “did not alter HIF-1a expression” and “did not suppress”, respectively.

Consider `C#Cc1cccc(Nc2ncnc3cc(OCCOC)c(OCCOC)cc23)c1` [erlotinib, Erlotinib], for which the “EMP2-induced HIF-1a expression” value in the test with HIF-1a was “produced a similar effect; also recorded: sufficient to inhibit its expression”.

On to VEGF, for which the “HUVEC cell tube formation” value in the test with HUVEC was “sufficient to induce HUVEC cell tube formation”.

As to `CC(C)(C)n1nc(-c2ccc(Cl)cc2)c2c(N)ncnc21` [PP2], the “EMP2-induced HIF-1a expression” value in the test with HIF-1a is recorded as “reversed”.

These data come from patent US20150079089A1, “EMP2 REGULATES ANGIOGENESIS IN CANCER CELLS THROUGH INDUCTION OF VEGF” (THE REGENTS OF THE UNIVERSITY OF CALIFORNIA, priority 2012, published 2015).
